“And” between values parts separate entries of the source, which are not always exact repeats. Equal values may be shown once.
How the values were obtained:
Assay type in all cases: in vivo
[1] = tested on: Spodoptera litura; assay: Test against tobacco cutworm (Spodoptera litura) larvae, leaf dip; details: active compound concentration of 100 ppm, third instar larvae on sweet potato leaves, after 7 days; for pest or weed control at 100 ppm: foliar, 168 h, read-out: insecticidal activity
Protocol: (§1) Unless not mentioned otherwise, the test solutions were prepared as follows:
(§2) Containing as solvent: Dimethylformamide, 3 parts by weight; and as emulsifier: Polyoxyethylene alkyl phenyl ether, 1 part by weight
(§3) To prepare the test solution, 1 part by weight of an active compound is mixed with the above-mentioned amount of solvent containing the above-mentioned amount of emulsifier, and the mixture is diluted with water to the desired concentration.
Leaves of sweet potato were immersed in the test solution at the appropriate concentration, and the leaves were dried in air. The leaves were then placed in a petri dish having a diameter of 9 cm, and ten Spodoptera litura at third instar larvae were released therein. The petri dishes were placed in a temperature-controlled chamber at 25° C. After 2 days and 4 days more sweet potato leaves were added. After 7 days, the number of dead larvae was counted to calculate the insecticidal activity. An insecticidal activity of 100% means that all larvae were killed, whereas an insecticidal activity of 0% means that no larva was killed. In the current test, the results of two petri dishes for each treatment were averaged.

[2] = tested on: Aulacophora femoralis; assay: Test against cucurbit leaf beetle (Aulacophora femoralis), leaf dip; details: active compound concentration of 500 ppm, second instar larvae on cucumber leaves, after 7 days; for pest or weed control at 500 ppm: Aulacophora, foliar, 168 h, read-out: insecticidal activity
Protocol: as §1, §2, §3
Leaves of cucumber were immersed in the test solution at the appropriate concentration, and the leaves were dried in air. The leaves were then put in a plastic cup containing sterilized black soil and five Aulacophora femoralis at second instar larvae were released in the cup. The cups were placed in a temperature-controlled chamber at 25° C. After 7 days, the number of dead larvae was counted, and thus the insecticidal activity was calculated. An insecticidal activity of 100% means that all larvae were killed, whereas an insecticidal activity of 0% means that no larva was killed.

[3] = tested on: Lucilia cuprina; assay: Lucilia cuprina (48 h) larval test; details: for mortality at 100 ppm: Lucilia cuprina, 48 h, read-out: activity (larval mortality)
Protocol: Species: Lucilia cuprina 1st instar larvae (age 24 hrs)
(§4) Solvent: dimethyl sulfoxide
10 mg active compound are dissolve in 0.5 ml dimethyl sulfoxide. Serial dilutions are made to obtain the desired rates. Approximately 20 Lucilia cuprina 1st instar larvae are transferred into a test tube containing 1 cm^3 of minced horse meat and 0.5 ml aqueous dilution of test compound. After 48 hrs percentage of larval mortality are recorded. 100% efficacy all larvae are killed, % efficacy normally developed larvae after 48 hrs.

[4] = tested on: Boophilus microplus; assay: Boophilus microplus-test (injection); details: Rhipicephalus microplus, 168 h, read-out: activity (mortality in %; 100% means that all eggs are infertile)
Protocol: as §4
To produce a suitable preparation of active compound, 10 mg of active compound are dissolved in 0.5 ml solvent, and the concentrate is diluted with solvent to the desired concentration. Five adult engorged female ticks (Boophilus microplus) are injected with 1 μl compound solution into the abdomen. Ticks are transferred into replica plates and incubated in a climate chamber for a period of time. Egg deposition of fertile eggs is monitored.
After 7 days mortality in % is determined. 100% means that all eggs are infertile; 0% means that all eggs are fertile.

[5] = tested on: Tetranychus urticae; assay: Test against two-spotted spider mite (Tetranychus urticae), spray; details: active compound concentration of 500 ppm, adult mites on kidney bean, after 7 days; for pest or weed control at 500 ppm: Tetranychus urticae, 168 h, read-out: acaricidal activity
Protocol: as §1, §2, §3
50 to 100 adult mites of Tetranychus urticae were inoculated to leaves of kidney bean at two-leaf stage planted in a pot of 6 cm in diameter. After one day, test solution at the appropriate concentration was sprayed thereon in a sufficient amount using a spray gun. After the spraying, the plant pot was placed inside a greenhouse, and after 7 days, the acaricidal activity was calculated. An acaricidal activity of 100% means that all mites were killed, whereas an acaricidal activity of 0% means that no mite was killed.

[6] = tested on: Ctenocephalides felis; assay: Ctenocephalides felis-test (CTECFE); details: adult unfed fleas, after 2 days; for mortality at 100 ppm: Ctenocephalides felis, in Bos taurus, 48 h, read-out: activity (mortality), application rate of 100 ppm in cattle blood; for activity (mortality): application rate of 100 ppm in cattle blood
Protocol: as §4
To produce a suitable preparation of active compound, 10 mg of active compound are dissolved in 0.5 ml solvent, and the concentrate is diluted with cattle blood to the desired concentration. Approximately 20 adult unfed (Ctenocepahlides felis) are placed in flea chambers. The blood chamber, sealed with parafilm on the bottom, are filled with cattle blood supplied with compound solution and placed on top of the flea chamber, so that the fleas are able to suck the blood. The blood chamber is heated to 37° C. whereas the flea chamber is kept at room temperature. After 2 days mortality in % is determined. 100% means that all the fleas have been killed; 0% means that none of the fleas have been killed.

[7] = tested on: Musca domestica; assay: Musca domestica-test; details: for mortality at 100 ppm: Musca domestica, 48 h, read-out: activity (mortality); for activity (mortality): application rate of 100 ppm, adults, after 2 days
Protocol: as §4
To produce a suitable preparation of active compound, 10 mg of active compound are dissolved in 0.5 ml solvent, and the concentrate is diluted with water to the desired concentration. Prior to the assay, a piece of kitchen sponge is soaked with a mixture of sugar and compound solution and placed into a container. 10 adults (Musca domestica) are placed into the container and closed with a perforated lid. After 2 days mortality in % is determined. 100% means that all the flies have been killed; 0% means that none of the flies have been killed.

| Compound | insecticidal activity [1] [%] | acaricidal activity [5] [%] | insecticidal activity [2] [%] | also measured |
| --- | --- | --- | --- | --- |
| Cc1cc(C(F)(C(F)(F)F)C(F)(F)F)cc(C)c1NC(=O)c1cc(Cl)c2ncc(Cl)cc2c1 [2-214, 3,8-dichloro-N-[4-(1,1,1,2,3,3,3-heptafluoropropan-2-yl)-2,6-dimethylphenyl]quinoline-6-carboxamide] |  |  |  | pest or weed control at 100 ppm [1]: 100%; pest or weed control at 500 ppm [2]: 100%; mortality at 100 ppm [3]: 90%; mortality at 0.02 mg [4]: 100% |
| O=C(Nc1c(I)cc(C(F)(C(F)(F)F)C(F)(F)C(F)(F)F)cc1OC(F)F)c1ccc2ncccc2c1 (stereo not drawn) [Compound No. 2-174, N-[2-(difluoromethoxy)-6-iodo-4-(1,1,1,2,3,3,4,4,4-nonafluorobutan-2-yl)phenyl]quinoline-6-carboxamide] |  |  |  | pest or weed control at 100 ppm [1]: 100%; pest or weed control at 500 ppm [5]: 100%; pest or weed control at 500 ppm [2]: 100%; mortality at 100 ppm [3]: 100%; mortality at 100 ppm [6]: 100%; mortality at 0.02 mg [4]: 100%; mortality at 100 ppm [7]: 100% |
| Cc1cc(C(F)(C(F)(F)F)C(F)(F)F)cc(Br)c1NC(=O)c1ccc2nc(C#N)ccc2c1 [2-40] | 100 | 100 | 100 | activity (mortality) [6]: 95% |
| N#Cc1ccc2cc(C(=O)Nc3c(Br)cc(C4(F)C(F)(F)C(F)(F)C(F)(F)C(F)(F)C4(F)F)cc3Br)ccc2n1 [2-133] | 100 | 100 | 100 | activity (mortality) [6]: 90% |
| CCc1cc(C(F)(C(F)(F)F)C(F)(F)C(F)(F)F)cc(C)c1NC(=O)c1ccc2ncccc2c1 (stereo not drawn) [2-88] | 100 |  | 100 | activity (mortality) [6]: 95% |
| Cc1cc(C(F)(C(F)(F)F)C(F)(F)F)cc(C)c1NC(=O)c1ccc2nc(C#N)ccc2c1 [Compound No. 2-20, 2-cyano-N-[4-(1,1,1,2,3,3,3-heptafluoropropan-2-yl)-2,6-dimethylphenyl]quinoline-6-carboxamide] |  |  |  | pest or weed control at 100 ppm [1]: 100%; pest or weed control at 500 ppm [2]: 100%; mortality at 100 ppm [3]: 100%; mortality at 100 ppm [6]: 100%; mortality at 0.02 mg [4]: 100%; mortality at 100 ppm [7]: 95% |
| O=C(Nc1c(Br)cc(C(F)(C(F)(F)F)C(F)(F)C(F)(F)F)cc1Br)c1ccc2ncccc2c1 (stereo not drawn) [2-108] | 100 |  | 100 | activity (mortality) [6]: 80% and 95%; activity (mortality) [7]: 80% |
| O=C(Nc1c(Br)cc(C(F)(C(F)(F)F)C(F)(F)Br)cc1OC(F)F)c1ccc2c(ccc[n+]2[O-])c1 (stereo not drawn) [Compound No. 2-202, N-[2-bromo-4-(1-bromo-1,1,2,3,3,3-hexafluoropropan-2-yl)-6-(difluoromethoxy)phenyl]quinoline-6-carboxamide 1-oxide] |  |  |  | pest or weed control at 500 ppm [5]: 100%; pest or weed control at 500 ppm [2]: 100%; mortality at 100 ppm [3]: 100%; mortality at 100 ppm [6]: 95%; mortality at 0.02 mg [4]: 100%; mortality at 100 ppm [7]: 100% |
| Cc1cc(C(F)(C(F)(F)F)C(F)(F)F)cc(C)c1NC(=O)c1ccc2ncc(Cl)cc2c1 [Compound No. 2-213, 3-chloro-N-[4-(1,1,1,2,3,3,3-heptafluoropropan-2-yl)-2,6-dimethylphenyl]quinoline-6-carboxamide] |  |  |  | pest or weed control at 100 ppm [1]: 100%; pest or weed control at 500 ppm [2]: 100%; mortality at 100 ppm [3]: 100%; mortality at 0.02 mg [4]: 100%; mortality at 100 ppm [7]: 80% |
| N#Cc1ccc2cc(C(=O)Nc3c(Br)cc(C(F)(F)F)cc3Br)ccc2n1 [2-3] |  |  | 100 | activity (larval mortality) ([3]; application rate of 100 ppm, 1st instar larvae, after 48 hrs): 80%; activity (mortality) [6]: 90% |
| N#Cc1ccc2cc(C(=O)Nc3c(Cl)cc(C(F)(C(F)(F)F)C(F)(F)C(F)(F)F)cc3OC(F)F)ccc2n1 (stereo not drawn) [2-274] | 100 | 100 | 100 |  |
| N#Cc1ccc2cc(C(=O)Nc3c(Cl)cc(C(F)(C(F)(F)F)C(F)(F)F)cc3OC(F)F)ccc2n1 [Compound No. 2-231, N-[2-chloro-6-(difluoromethoxy)-4-(1,1,1,2,3,3,3-heptafluoropropan-2-yl)phenyl]-2-cyanoquinoline-6-carboxamide] |  |  |  | pest or weed control at 100 ppm [1]: 100%; pest or weed control at 500 ppm [5]: 100%; pest or weed control at 500 ppm [2]: 100% |
| CCc1cc(C(F)(C(F)(F)F)C(F)(F)Br)cc(C)c1NC(=O)c1ccc2nc(C#N)ccc2c1 (stereo not drawn) [2-194] | 100 | 100 | 100 |  |
| CCc1cc(C(F)(C(F)(F)F)C(F)(F)C(F)(F)F)cc(C)c1NC(=O)c1ccc2nc(C#N)ccc2c1 (stereo not drawn) [2-90] | 100 | 100 | 100 | activity (mortality) [7]: 80% |
| CCc1cc(C2(F)C(F)(F)C(F)(F)C(F)(F)C(F)(F)C2(F)F)cc(C)c1NC(=O)c1ccc2nc(C#N)ccc2c1 [2-130] | 100 | 100 | 100 |  |
| N#Cc1ccc2cc(C(=O)Nc3c(Br)cc(C(F)(C(F)(F)F)C(F)(F)F)cc3C(F)(F)F)ccc2n1 [2-249] | 100 | 100 | 100 |  |
| N#Cc1ccc2cc(C(=O)Nc3c(Br)cc(C(F)(F)C(F)(F)F)cc3OC(F)F)ccc2n1 [2-221] | 100 | 100 | 100 |  |
| CCc1cc(C(F)(C(F)(F)F)C(F)(F)F)cc(C)c1NC(=O)c1ccc2nc(C#N)ccc2c1 [2-31] | 100 | 100 | 100 |  |
| CCc1cc(C(F)(C(F)(F)F)C(F)(F)F)cc(Br)c1NC(=O)c1ccc2nc(C#N)ccc2c1 [2-49] | 100 | 100 | 100 | activity (mortality) [6]: 95% |
| N#Cc1ccc2cc(C(=O)Nc3c(Br)cc(C(F)(C(F)(F)F)C(F)(F)Br)cc3Br)ccc2n1 (stereo not drawn) [2-197] | 100 | 100 | 100 |  |
| CCc1cc(C(n2cc(Cl)cn2)(C(F)(F)F)C(F)(F)F)cc(C)c1NC(=O)c1ccc2nc(C#N)ccc2c1 [2-83] | 100 | 100 | 100 |  |
| CCc1cc(C(F)(C(F)(F)F)C(F)(F)F)cc(C)c1NC(=O)c1ccc2nc(Cl)ccc2c1 [2-29] | 100 | 100 | 100 |  |

Source: patent publication US8822691B2, “Pesticidal carboxamides” (Bayer CropScience AG, priority 2009, dated 2014)
